Test system: Oct4-introduced Sox10::eGFP fibroblasts
Experiment: FACS analysis of Sox10::eGFP reporter expression after low molecular weight substance treatment
Assay type: cell-based, human
Details: 10 μM forskolin added to ATVP medium
Description: The inventors have established conditions capable of inducing neural stem cells from mouse cells only with a low molecular weight substance without gene introduction (KR 10-1357402). Accordingly, to establish new conditions capable of inducing human somatic cells into OPCs on the basis of the low molecular weight substance that had been established in the previous study, a low molecular weight substance was selected using a Sox10 reporter system (Sox10::eGFP), which is a gene known to be important in development of oligodendrocytes (FIG. 1). When Oct4 gene-introduced cells were cultured in a reprogramming medium (RM: DMEM with high Glucose+5% knock out serum replacement (KSR)+1% penicillin/streptomycin+1% non-essential amino acids+20 ng/ml basic FGF (bFGF)+20 ng/ml human recombinant platelet derived growth factor (PDGF)+50 μg/ml ascorbic acid), one week after induction, it was confirmed that a cell length was shorter and a cell size was smaller through mesenchymal to epithelial transition (MET), thereby forming an epithelial-like colony. […]

C=C[C@@]1(C)CC(=O)[C@]2(O)[C@@]3(C)[C@@H](O)CCC(C)(C)[C@@H]3[C@H](O)[C@H](OC(C)=O)[C@@]2(C)O1 [forskolin]
Sox10::eGFP expression (GFP+ distribution, FACS): 3.31%

From US11572540B2, “Method for inducing oligodendrocyte precursor cells from OCT4-induced human somatic cells through direct reprogramming” (Stemlab Inc., priority 2015, dated 2023)
